Patent US12508323B2, “Method of treatment of colorectal, breast and lung cancer with metal containing immune agonist complexes” (HANGZHOU XINGAO BIOTECHNOLOGY CO., LTD., priority 2020, dated 2025)

Assays:
[1] = test system: colorectal cancer cell line CT26; experiment: Subcutaneous transplantation tumor model, CT26 in BALB/C mice; assay type: in vivo; settings: i.p. 10 mg/kg (nanobody 200 μg/mouse) once a day for 21 days
Procedure: (§1) Specific pathogen free (SPF)-grade BALB/C and C57BL/6 male mice, aged 7-8 weeks and weighing 20-22 g, were purchased from Shanghai Slac Laboratory Animal Co., Ltd (Laboratory animal quality certificate number: SCXK (Shanghai)2007-0005.
(§2) Mice were injected intraperitoneally with the immune agonist or complex with a dose of 10 mg/kg, or each injected intraperitoneally with 200 μg of the nanobody.
(§3) Administration route: intraperitoneal injection.
(§4) Frequency: once a day for consecutive 21 days.
(§5) Cancer cells were cultured, passaged, collected at the logarithmic phase of cells, and prepared into a cell suspension at a concentration of (1.0×10^7) per ml. Mice were injected with 0.2 ml of the cell suspension at the axilla of the right forelimb (cell number 2.0×10^6 cells/each), and were tumorigenic in about 8 days. These mice were randomly divided into 10 groups equally, namely, group A: negative control group (saline group), group B: positive control (cGAMP) group (dose: 10 mg/kg), group C: MncGAMP group (dose: 10 mg/kg), group D: anti-PD-L1 nanobody group, group E: anti-CD47 nanobody group, group F: anti-TfR1 nanobody group, group G: complex V group (dose: 10 mg/kg), group H: complex VI group (dose: 10 mg/kg), group I: complex IX group (dose: 10 mg/kg), and group J: complex VIII group (10 mg/kg). […]
(§6) The data were expressed as ×±s and processed by SPSS10.0 software. […]

[2] = test system: breast cancer cell line 4T1; experiment: Subcutaneous transplantation tumor model, 4T1 in BALB/C mice; assay type: in vivo; settings: i.p. 10 mg/kg (nanobody 200 μg/mouse) once a day for 21 days
Procedure: as §1, §2, §3, §4, §5, §6

[3] = test system: coronavirus (ATCC VR-841); experiment: Inhibition of coronavirus replication in PBMCs (fluorescence quantitative RT-PCR); assay type: cell-based; settings: PBMC, 504 h, 100 μg/mL drug, 10 μL virus, after three weeks, six samples per group, read-out: Average inhibition rate of coronavirus (%)
Source text: Peripheral blood mononuclear cells (PBMCs) used herein was purchased from Shanghai Saili biotechnology Co., Ltd, which mainly included lymphocytes (T cells/B cells), monocytes, macrophages, and dendritic cells. Most of PBMCs were lymphocytes. PBMCs were normal primary cells, which belonged to a mixed system.
The virus strain used herein was coronavirus (ATCC VR-841), which was suitable for laboratory use and purchased from ATCC company. It was a bronchopneumonia coronavirus. Virus experiments in this study were performed by virus laboratory of American Animals Inc.
The cultured PBMCs were divided into seven groups (six samples in each group), namely, group A: negative control group (PBMC); group B, PBMC+cGAMP; group C, PBMC+MncGAMP; group D, PBMC+complex VIII; group E, PBMC+complex I; group F, PBMC+complex II; and group G, PBMC+complex III. Except for group A, which was used as a control group without drug addition, all other groups were respectively added with 100 μg/mL of the corresponding drug. Each cell sample was added with 10 μL of virus, and the antiviral status of the different immune agonist complexes were determined after three weeks. The inhibition rate of virus was selected as an evaluation index. The activity titer of the virus was detected by fluorescence quantitative RT-PCR.

[4] = test system: TREM2; experiment: TREM2 expression in brain tissues of AD mice; assay type: in vivo; settings: 10 mg/kg i.p., 60 days of administration
Source text: ELISA kits were purchased from Cloud Clone. Flow cytometry nanobodies were purchased from eBiosciences. RT-PCR reagents were purchased from Takara. Immune fluorescence and immune histochemistry nanobodies were purchased from Abcam. Other reagents were purchased from Sigma-Aldrich. Primer synthesis was done by Shanghai Biotechnology Co. Laser confocal microscope was purchased from Leica (Germany). 7500 quantitative PCR instrument was purchased from Applied Biosystems ABI (USA). Light microscope was purchased from Leica (Germany). Enzyme marker was purchased from Hangzhou Aosheng Company. Attune flow cytometer was purchased from Thermo Fisher Scientific. RT-PCR in vitro TREM2 content was determined, and the TREM2 primer sequences were as follows:
Whether mRNA levels of TREM2 in brain tissues of mice were altered after administration of the immune agonist and complexes thereof was determined.

[5] = test system: pro-inflammatory factors IL-1β and TNF-α; experiment: Pro-inflammatory factors in brain tissues of AD mice (ELISA); assay type: in vivo; settings: 10 mg/kg i.p., two months of administration
Procedure: To explore the effect of the above immune agonists and complexes thereof on neuroinflammation in the brain of AD mice, the content of pro-inflammatory factors in brain tissues of AD mice was determined by ELISA method. The content of pro-inflammatory factors IL-1β and TNF-α in brain tissues of AD mice were measured respectively.
Fresh brain tissues of mice were taken and weighed, and the content of inflammatory factors IL-1β and TNF-α in brain tissues was determined by using the Cloud Clone ELISA kit. […] Therefore, the immune agonist-brain-targeted nanocarrier complexes were able to eliminate the chronic neuroinflammation present in the course of AD in mice.

[6] = vs negative control tumor weight

Nc1nc(=O)c2ncn(C3OC4COP(=O)(O)OC5C(COP(=O)(O)OC3C4O)OC(n3cnc4c(N)ncnc43)C5O)c2[nH]1 (centres unmarked) [cGAMP, 2′3′-cGAMP]
Average tumor weight ([1]; n = 10, mean ± SD): 0.784 ± 0.135 g
Average tumor inhibition rate (%) [1, 6]: 65.0%
Average tumor weight ([2]; n = 10, mean ± SD): 0.862 ± 0.156 g
Average tumor inhibition rate (%) [2, 6]: 61.9%
inhibition at 100 µg/mL [3]: 25 ± 4%
TREM2 [4]: 55.38 ± 0.27 pg/mg
IL-1β [5]: 46.18 ± 0.09 pg/mg
TNF-α [5]: 35.52 ± 0.35 pg/mg
